Test results published in US6635242B2, “Broad spectrum microbicidal and spermicidal compositions, devices, and methods” (The Pennsylvania State University, priority 1998, dated 2003).

Key:
[1] = system: lymphocyte-, macrophage- and dual-tropic strains of HIV-1 (IIIB, BaL, 89.6); assay: Cell-free HIV-1 inactivation (FIG. 5); assay type: cell-based, human immunodeficiency virus; conditions: HCLB or P4-R5 indicator cells
Procedure: Cell-free HIV-1 strain IIIB (A) was treated with N-9, C31G, or SDS, and used to infect HCLB cells. Cell-free HIV-1 strains BaL (M tropic) (B) and 89.6 (dual tropic) (C) were treated with N-9, C31G or SDS,and used to infect P4-R5 cells. Assays were conducted. Infectivity following exposure is expressed as a percentage relative to the number of β-gal-positive cells in duplicate wells infected with virus incubated in the absence of a microbicidal compound. Results shown in FIG. 5 are the average cell counts for a total of four wells per concentration in two independent experiments.

Bovine sperm = Bovine sperm motility following detergent addition; assay type: cell-based; set-up: key to Bovine Sperm Motility Following Detergent Addition: +++: Vigorous swimming; ++/−: Many swimmers/some dead; +/−: Occasional swimmer/most dead; −: All dead
Text: The following data represent an in vitro experiment to test the efficacy of SDS and other detergents as spermicidal agents. Frozen samples of bull semen were obtained, thawed and placed in a test tube. Aliquots were taken out and put in a separate test tube where they were mixed with detergent (SDS, C31G, N-9 or a mixture of SDS and N-9) to a final percent as listed in Tables 8 and 9 below. After mixing, the samples were immediately placed on a microscope slide and visually examined for sperm movement. The experiment was conducted one sample at a time so that the visual examination was conducted immediately after addition of detergent to the sample. As a result, indications in the table of complete inactivation indicate virtually instantaneous inactivation of the sperm. […] Occasional swimmers means very few, on the order of approximately 1% of the population of sperm present in the sample, indicating approximately 99% of the sperm were inactivated by the detergent.

HSV-2 = assay: Protection of mice from vaginal infection with live HSV-2; assay type: in vivo, herpes simplex virus; conditions: Swiss-Webster mice
Procedure: The following data represent an in vivo experiment to test both the toxicity and the efficacy of SDS in the protection of mice from vaginal infection with live herpes simplex virus (HSV-2).
The experiment used outbred, female, Swiss-Webster mice. Mice were anesthetized and then SDS or control solutions (25μl ) was instilled into the vagina using a yellow pipette tip. The SDS was not formulated into a vaginal cream or foam but merely dissolved into phosphate buffered saline. These solutions have low viscosity. Fluids were instilled into groups of 10 mice at one time. Following administration of SDS or control solutions to the group of 10, then an additional 25 μof virus or control fluid was instilled. Mice were allowed to recover from the anesthesia and then the mice were checked daily for symptoms, beginning on day three and until 12 days after inoculation. Vaginal swabs were also performed on the mice on a daily basis, beginning on day three, in order to determine shedding of virus. FIGS. 3A-3G show the total symptoms per group on days 3 through 12 for each of the following symptoms: swelling, vaginal exudate, redness, death, leg paralysis, perianal hair loss and any symptom.

HPV 11 = assay: Human papilloma induction: HPV 11 in human foreskin xenografts in athymic mice; assay type: in vivo, human papillomavirus
Procedure: Stocks of experimentally generated infectious HPV 11 were prepared and represented 10% w/v cell free extracts of virus in PBS. Undiluted aliquots of virus stocks (39 μl ) were mixed with a 40×solution of SDS 1 μl ), incubated at 37° C. for 10 min and immediately used to infect split thickness grafts of newborn human foreskin epithelium. Virus was not subsequently diluted. Control grafts were infected with untreated virus stock. Virus adsorption was for 1 hr at 37° C. […] Grafts were then transplanted beneath the renal capsule of athymic mice. Animals were maintained in isolator bubbles with antibiotic supplemented drinking water in the animal colony of the Hershey Medical Center. Three months following infection, animals were sacrificed, their kidneys were removed, and the xenografts were grossly examined. The remaining organs were examined for any apparent abnormalities and none were found. Portions of each graft were immediately fixed in 10% neutral-buffered formalin and processed by standard histologic techniques for staining with hematoxylin and eosin.
Standard stocks of HPV 11 were used as undiluted virus. These virus stocks normally induce Condylomata in 90-100% of infected xenografts when diluted 1000 fold. […] Infection was then carried out for 1 hr and the grafts subsequently transplanted in vivo. Eight animals (16 kidneys) received grafts infected with SDS treated virus and 9 animals (17 kidneys) received normal virus. […] In the normal infections, 17 of 17 grafts survived and of these, 14 were transformed morphologically upon histologic examination and had typical papillomatous appearance.

[2] = system: HIV-1-infected SupT1 cells; assay: Cell-associated HIV-1 infectivity (FIG. 6); assay type: cell-based, human immunodeficiency virus; conditions: 10 min at 37° C., co-culture with HCLB cells, FIG. 6(a)
Procedure: (A) SupT1 T lymphocytes (8×10^4)infected 5 days prior with HIV-1 strain IIIB were pelleted and resuspended in new media to remove cell-free virus. After exposure to selected concentrations of each microbicide for 10 min at 37° C., the cells were diluted 1:10 and co-cultured with HCLB cells for 2 h. Following one wash with PBS to remove the infected lymphocytes, the indicator cells were cultured and assayed. Infectivity following exposure is expressed as a percentage relative to the number of β-gal-positive cells in duplicate wells infected with HIV-1 infected SupT1 cells incubated in the absence of a microbicidal compound. Results shown in FIG. 6(a) are the average cell counts for a total of four wells per concentration in two independent experiments. (B) SupT1 T lymphocytes (8×10^4) were incubated with selected concentrations of each microbicide for 10 min at 37° C., and then diluted 1:10 with new media. Following a 2 h incubation period, the cells were assessed for viability. Cell survival after treatment is expressed as the fraction of viable cells relative to the number of mock-exposed cells. Results shown in FIG. 6(b) are the average of two experiments in which triplicate wells for each concentration were assayed.

[3] = 0.025 % SDS during treatment (as printed in Table 5), grafts harvested after three months
[4] = undiluted HPV 11 treated with 0.05% SDS, 37° C. 10 min

## CCCCCCCCCCCCOS(=O)(=O)[O-].[Na+] [SDS, Sodium dodecyl sulfate]
[1]
  inactivation of cell-free HIV-1 strains IIIB, BaL and 89.6 (infectivity, β-gal-positive cells): inactivated
Bovine sperm; Table 8, 0.0125% detergent
  Bovine Sperm Motility Following Detergent Addition: +/−
Bovine sperm; Table 8, 0.0125% detergent, delayed = approximately 10 minutes
  timing of sperm inactivation: (delayed)
Bovine sperm; Table 8, 0.025% detergent
  Bovine Sperm Motility Following Detergent Addition: −
Bovine sperm; Table 8, 0.5% detergent
  Bovine Sperm Motility Following Detergent Addition: −
Bovine sperm; Table 8, 1% detergent
  Bovine Sperm Motility Following Detergent Addition: −
Bovine sperm; Table 8, 2% detergent
  Bovine Sperm Motility Following Detergent Addition: −
Bovine sperm; Table 9, 0.125% detergent
  Bovine Sperm Motility Following Detergent Addition: ++/−
Bovine sperm; Table 9, 0.25% detergent
  Bovine Sperm Motility Following Detergent Addition: ++/−
Bovine sperm; Table 9, 0.5% detergent
  Bovine Sperm Motility Following Detergent Addition: ++/−
Bovine sperm; Table 9, 1% detergent
  Bovine Sperm Motility Following Detergent Addition: ++/−
Bovine sperm; Table 9, 2% detergent
  Bovine Sperm Motility Following Detergent Addition: +/−
HSV-2; 4% SDS
  protection from HSV-2 inoculation of the vagina, dose response: most protection
HSV-2; all concentrations of SDS (0.5%, 1%, 2%, 4%) in PBS, 25 μl intravaginal
  protection from HSV-2 inoculation of the vagina (symptoms days 3-12): significant protection
HPV 11; [3]
  surviving grafts/ transplanted grafts: 13/16
  total papillomas: 0
HPV 11; [4]
  prevention of HPV 11 infection of xenografts: effectively prevented virus infection
  xenografts showing viable tissue at harvest (normal, viable differentiating human epithelium): 13 out of 16
[2]
  cell-associated infectivity of HIV-1-infected SupT1 cells: can reduce the cell-associated infectivity
